What was measured:
[1] = target: T1, purified recombinant CDC25C enzyme (MBP-CDC25C protein) (Homo sapiens, UniProt P30307); test: Phosphatase activity of the purified recombinant CDC25C enzyme (OMFP dephosphorylation, fluorescence); format: biochemical; settings: OMFP 500 μM, 4 hours at 30° C., three independent experiments; nested upper bounds; read-out: IC50 for the phosphatase activity of the purified recombinant CDC25-C enzyme
T1 construct: made in house
T1 sequence (P30307 1-473): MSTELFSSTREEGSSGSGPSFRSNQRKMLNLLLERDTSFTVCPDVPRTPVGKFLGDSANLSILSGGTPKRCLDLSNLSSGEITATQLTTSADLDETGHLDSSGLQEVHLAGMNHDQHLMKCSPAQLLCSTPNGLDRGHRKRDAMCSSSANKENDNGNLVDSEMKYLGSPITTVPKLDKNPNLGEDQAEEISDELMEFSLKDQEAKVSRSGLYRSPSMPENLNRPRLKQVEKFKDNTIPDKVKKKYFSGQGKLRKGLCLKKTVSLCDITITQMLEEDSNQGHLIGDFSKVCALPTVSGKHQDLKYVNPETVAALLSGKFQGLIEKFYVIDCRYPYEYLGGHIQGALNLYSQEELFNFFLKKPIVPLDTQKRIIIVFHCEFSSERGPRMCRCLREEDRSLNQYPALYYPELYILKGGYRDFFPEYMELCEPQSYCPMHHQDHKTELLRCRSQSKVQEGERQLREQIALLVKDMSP
Description: i) Determination of the Phosphatase Activity of the Purified Recombinant CDC25C Enzyme:
The phosphatase activity of the MBP-CDC25C protein is evaluated through its dephosphorylation of 3-O-methylfluorescein-phosphate (OMFP) to form 3-O-methylfluorescein (OMF), determining the fluorescence of the reaction product at 475 nm. This assay can be used to identify inhibitors of the recombinant CDC25 enzyme. The preparation of the MBP-CDC25C fusion protein is described in the PCT patent application published under the number WO 01/44467.
The reaction is performed in 384-well plates in a final volume of 50 μl. The MBP-CDC25C protein (prepared as described hereinabove) is stored in the following elution buffer: 20 mM Tris-HCl pH 7.4; 250 mM NaCl; 1 mM EDTA; 1 mM dithiothreitol (DTT); 10 mM maltose. It is diluted to a concentration of 60 μM in the following reaction buffer: 50 mM Tris-HCl pH 8.2; 50 mM NaCl; 1 mM DTT; 20% glycerol. The background noise is determined using with the buffer without adding the enzyme. The products are tested at decreasing concentrations from 40 μM. The reaction is initiated by the addition of OMFP solution to a final concentration of 500 μM (prepared immediately before use from a 12.5 mM stock solution in 100% DMSO (Sigma #M2629)). After 4 hours at 30° C. in a disposable 384-well plate, the fluorescence measured at OD 475 nm is read on a Victor^2 plate reader (EGG-Wallac). The concentration that produces 50% inhibition of the enzyme reaction is calculated from three independent experiments. Only the values that fall within the linear part of the sigmoid curve are used for the linear regression analysis.

[2] = test system: DU 145 (human prostate carcinoma cells); test: Anti-proliferative activity, DU 145 cells (WST1 colorimetric test); format: cell-based; settings: DU-145, 96 h, 96 hours treatment, up to 10 μM, nested upper bounds, read-out: IC50 for proliferation of the DU 145 cell lines
Description: (§1) ii) Characterisation of Anti-Proliferative Activity:
(§2) By way of an example, the effect of treating two human cell lines MIA PaCa-2 and DU 145 with the compounds of the examples described hereinbefore will be studied. The cell lines DU 145 (human prostate carcinoma cells) and MIA PaCa-2 (human pancreatic carcinoma cells) were obtained from the American Tissue Culture Collection (Rockville, Md., USA). A 96-well plate was inoculated on day 0 with cells in 80 μl of Dulbecco's modified Eagle's medium (Gibco-Brl, Cergy-Pontoise, France) with 10% heat-inactivated foetal calf serum (Gibco-Brl, Cergy-Pontoise, France), 50,000 units/l of penicillin and 50 mg/l of streptomycin (Gibco-Brl, Cergy-Pontoise, France) and 2 mM of glutamine (Gibco-Brl, Cergy-Pontoise, France). The cells were treated on day 1 for 96 hours with increasing concentrations of each test compound up to 10 μM. At the end of this period, cell proliferation is quantified by means of a colorimetric test based on cleavage of the tetrazolium salt WST1 by the mitochondrial dehydrogenases in the viable cells, resulting in formation of formazan (Boehringer Mannheim, Meylan, France). These tests are performed in duplicate with 8 determinations per concentration tested. For each test compound, the values within the linear part of the sigmoid curve were subjected to linear regression analysis and used to estimate the IC50 inhibitory concentration. The products are solubilised in dimethylsulfoxide (DMSO) at a concentration of 10^−2 M and used in culture with a final DMSO concentration of 0.1%.

[3] = test system: MIA PaCa-2 (human pancreatic carcinoma cells); test: Anti-proliferative activity, MIA PaCa-2 cells (WST1 colorimetric test); format: cell-based; settings: MIA PaCa-2, 96 h, 96 hours treatment, up to 10 μM, nested upper bounds, read-out: IC50 for proliferation of the MIA PaCa-2 cell lines
Description: as §1, §2

| SMILES | melting point [°C] | IC50 [1] [µM] | IC50 [2] [µM] | IC50 [3] [µM] |
| --- | --- | --- | --- | --- |
| Cl.O=c1c(NCCNc2cc(N3CCCC3)nc(N3CCCC3)n2)c(Nc2ccc(Cl)cc2)c1=O | > 370 |  |  |  |
| COc1c(NCCNc2cc(N3CCCC3)nc(N3CCCC3)n2)c(=O)c1=O [Example 1, 3-({2-[(2,6-dipyrrolidin-1-ylpyrimidin-4-yl)amino]ethyl}amino)-4-methoxycyclobut-3-ene-1,2-dione] | 116 to 118 | ≤ 5 |  |  |
| O=c1c(NCCNc2cc(N3CCCC3)nc(N3CCCC3)n2)c(N2CCCCC2)c1=O [Example 2, 3-({2-[(2,6-dipyrrolidin-1-ylpyrimidin-4-yl)amino]ethyl}amino)-4-piperidin-1-ylcyclobut-3-ene-1,2-dione] | > 250 | ≤ 5 |  |  |
| CCCCNc1c(NCCNc2cc(N3CCCC3)nc(N3CCCC3)n2)c(=O)c1=O [Example 3, 3-(butylamino)-4-({2-[(2,6-dipyrrolidin-1-ylpyrimidin-4-yl)amino]ethyl}amino)cyclobut-3-ene-1,2-dione] | 246 to 248 | ≤ 1 |  |  |
| O=c1c(NCCNc2cc(N3CCCC3)nc(N3CCCC3)n2)c(N2CCOCC2)c1=O [Example 4, 3-({2-[(2,6-dipyrrolidin-1-ylpyrimidin-4-yl)amino]ethyl}amino)-4-morpholin-4-ylcyclobut-3-ene-1,2-dione] | 242 to 244 | ≤ 5 |  |  |
| COc1c(NCCN(C)CCNc2cc(N3CCCC3)nc(N3CCCC3)n2)c(=O)c1=O [Example 6] | 132 to 134 | ≤ 5 |  |  |
| CN(CCNc1cc(N2CCCC2)nc(N2CCCC2)n1)CCNc1c(O)c(=O)c1=O [Example 7, 3-({2-[{2-[(2,6-dipyrrolidin-1-ylpyrimidin-4-yl)amino]ethyl}(methyl)amino]ethyl}amino)-4-hydroxycyclobut-3-ene-1,2-dione] |  | ≤ 5 |  |  |
| O=c1c(NCCNc2cc(N3CCCC3)nc(N3CCCC3)n2)c(Nc2ccc(Cl)cc2)c1=O [Example 9, 3-[(4-chlorophenyl)amino]-4-({2-[(2,6-dipyrrolidin-1-ylpyrimidin-4-yl)amino]ethyl}amino)cyclobut-3-ene-1,2-dione] | 251 to 253 | ≤ 1 |  |  |
| O=S(=O)(O)O.O=c1c(NCCNc2cc(N3CCCC3)nc(N3CCCC3)n2)c(Nc2ccc(Cl)cc2)c1=O [Example 9b, 3-[(4-chlorophenyl)amino]-4-({2-[(2,6-dipyrrolidin-1-ylpyrimidin-4-yl)amino]ethyl}amino)cyclobut-3-ene-1,2-dione sulfate] | 263 to 266 |  |  |  |
| O=P(O)(O)O.O=c1c(NCCNc2cc(N3CCCC3)nc(N3CCCC3)n2)c(Nc2ccc(Cl)cc2)c1=O [Example 9c, 3-[(4-chlorophenyl)amino]-4-({2-[(2,6-dipyrrolidin-1-ylpyrimidin-4-yl)amino]ethyl}amino)cyclobut-3-ene-1,2-dione phosphate] | 275 to 278 |  |  |  |
| O=C(O)/C=C\C(=O)O.O=c1c(NCCNc2cc(N3CCCC3)nc(N3CCCC3)n2)c(Nc2ccc(Cl)cc2)c1=O [Example 9d, 3-[(4-chlorophenyl)amino]-4-({2-[(2,6-dipyrrolidin-1-ylpyrimidin-4-yl)amino]ethyl}amino)cyclobut-3-ene-1,2-dione maleate] | 248 to 250 |  |  |  |
| O=c1c(NCCNc2cc(N3CCCC3)nc(N3CCCC3)n2)c(Nc2ccc(-c3ccccc3)cc2)c1=O [Example 11, 3-(biphenyl-4-ylamino)-4-({2-[(2,6-dipyrrolidin-1-ylpyrimidin-4-yl)amino]ethyl}amino)cyclobut-3-ene-1,2-dione] |  | ≤ 5 | ≤ 10 |  |
| O=c1c(NCCNc2cc(N3CCCC3)nc(N3CCCC3)n2)c(Nc2cccc(-c3nnn[nH]3)c2)c1=O [Example 12, 3-({2-[(2,6-dipyrrolidin-1-ylpyrimidin-4-yl)amino]ethyl}amino)-4-{[3-(1H-tetrazol-5-yl)phenyl]amino}cyclobut-3-ene-1,2-dione] |  | ≤ 5 |  |  |
| CC(=O)Nc1ccc(Nc2c(NCCNc3cc(N4CCCC4)nc(N4CCCC4)n3)c(=O)c2=O)cc1 [Example 13, N-(4-{[2-({2-[(2,6-dipyrrolidin-1-ylpyrimidin-4-yl)amino]ethyl}amino)-3,4-dioxocyclobut-1-en-1-yl]amino}phenyl)acetamide] | 263 to 265 | ≤ 5 |  |  |
| COc1cc(Nc2c(NCCNc3cc(N4CCCC4)nc(N4CCCC4)n3)c(=O)c2=O)cc(OC)c1OC [Example 14, 3-({2-[(2,6-dipyrrolidin-1-ylpyrimidin-4-yl)amino]ethyl}amino)-4-[(3,4,5-trimethoxyphenyl)amino]cyclobut-3-ene-1,2-dione] | 154 to 156 | ≤ 5 |  | ≤ 10 |
| O=c1c(NCCNc2cc(N3CCCC3)nc(N3CCCC3)n2)c(Nc2ccccc2Cl)c1=O [Example 16, 3-[(2-chlorophenyl)amino]-4-({2-[(2,6-dipyrrolidin-1-ylpyrimidin-4-yl)amino]ethyl}amino)cyclobut-3-ene-1,2-dione] | 179 to 181 | ≤ 1 |  | ≤ 10 |
| CNCc1ccc(Nc2c(NCCNc3cc(N4CCCC4)nc(N4CCCC4)n3)c(=O)c2=O)cc1.Cl [Example 22, 3-({2-[(2,6-dipyrrolidin-1-ylpyrimidin-4-yl)amino]ethyl}amino)-4-({4-[(methylamino)methyl]phenyl}amino)cyclobut-3-ene-1,2-dione hydrochloride] | > 260 | ≤ 5 |  | ≤ 10 |
| O=c1c(NCCNc2cc(N3CCCC3)nc(N3CCCC3)n2)c(Nc2ccc(O)cc2)c1=O [Example 27, 3-({2-[(2,6-dipyrrolidin-1-ylpyrimidin-4-yl)amino]ethyl}amino)-4-[(4-hydroxyphenyl)amino]cyclobut-3-ene-1,2-dione] | > 260 | ≤ 15 |  |  |
| Cl.NCc1ccc(Nc2c(NCCNc3cc(N4CCCC4)nc(N4CCCC4)n3)c(=O)c2=O)cc1 [Example 28, 3-{[4-(aminomethyl)phenyl]amino}-4-({2-[(2,6-dipyrrolidin-1-ylpyrimidin-4-yl)amino]ethyl}amino)cyclobut-3-ene-1,2-dione hydrochloride] | 224 to 226 | ≤ 5 |  | ≤ 10 |
| Cl.NCCc1ccc(Nc2c(NCCNc3cc(N4CCCC4)nc(N4CCCC4)n3)c(=O)c2=O)cc1 [Example 30, 3-{[4-(2-aminoethyl)phenyl]amino}-4-({2-[(2,6-dipyrrolidin-1-ylpyrimidin-4-yl)amino]ethyl}amino)cyclobut-3-ene-1,2-dione hydrochloride] | 250 to 252 | ≤ 5 |  |  |
| O=c1c(NCCNc2cc(N3CCCC3)nc(N3CCCC3)n2)c(Nc2ccccc2)c1=O [Example 35, 3-anilino-4-({2-[(2,6-dipyrrolidin-1-ylpyrimidin-4-yl)amino]ethyl}amino)cyclobut-3-ene-1,2-dione] |  | ≤ 1 |  | ≤ 10 |
